Assay results reported in PubChem BioAssay (NCI).
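These data come from cells grown in 96-well plates and exposed to compound for 48 hours at five concentrations. TGI marks complete inhibition of growth.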 Where a SMILES comes first, the peptide text is derived from it. [ ]: non-standard residue; d: D form. The star is where a group is joined. ξ: configuration not given here. ξD = NC(CC(=O)O)C(=O)O; Ac3c = NC1(C(=O)O)CC1; Boc = CC(C)(C)OC(=O)*; OBn = c1ccc(CO*)cc1

Assays:
Experiment in all cases: NCI-60 cell line screen, 48 h
[1] = tested on: SNB-19 CNS
[2] = tested on: SF-295 CNS
[3] = tested on: NCI-H522 lung
[4] = tested on: HCT-116 colon
[5] = tested on: UO-31 renal
[6] = tested on: UACC-62 melanoma
[7] = tested on: OVCAR-4 ovarian
[8] = tested on: SN12C renal
[9] = tested on: HOP-62 NSCLC
[10] = tested on: HOP-92 NSCLC

Structure (SMILES)	TGI [1] [µM]	TGI [2] [µM]	TGI [3] [µM]	TGI [4] [µM]	TGI [5] [µM]	TGI [6] [µM]	TGI [7] [µM]	TGI [8] [µM]	TGI [9] [µM]	TGI [10] [µM]
CC(NC1=NCCO1)c1cccc([N+](=O)[O-])c1 (stereo not given)	> 100	> 100	> 100	> 100	> 100	> 100	> 100	> 100	> 100	> 100
O=C1OC2(C(F)(F)F)Oc3ccccc3CN2C12CCCCC2 (stereo not given)	> 100	86.8	83.3	82.8	84.3	> 100	> 100	> 100	91.9	61.7
CSc1nc(NC2OCC(O)C(O)C2O)c(N)c(=O)n1C (stereo not given)	> 100	> 100	> 100	> 100	> 100	> 100	> 100	> 100	> 100	> 100
COC(=O)c1nc(-c2ccc3c(n2)C(=O)C(N)=C(OC)C3=O)c(N)c(-c2ccc(OC)c(OC)c2O)c1C	2.22	2.02	2.43	2.14	2.46	1.27	3.06	2.69	0.487	5.79
C=C1C(=O)O[C@H]2C/C(C)=C/CC/C(C)=C/CC[C@@](C)(O)[C@@H](I)C[C@@H]12	30	32.8	14.4	12.3	24.5	23.9	15.4	18.1	30.9	9.82
c1cc(C[S+]2CCCC2)ccc1C[S+]1CCCC1	> 100	> 100	> 100	> 100	> 100	> 100	> 100	> 100	> 100	> 100
COC(=O)c1ccc(CCc2cc(O)ccc2O)cc1	> 62.7	> 70.5	2.16	24	7.04	33.9	24.4	29.3	48.6	26.4
O=C(c1ccccc1)c1c(C(F)(F)F)n([O-])c2cc(Cl)c(Cl)cc2[n+]1=O	3	7.31	1.08	0.989	4.21	8.28	3.12	1.87	0.909	19.9
Nc1ccc(-c2nc3cc(F)ccc3s2)cc1I	54.9	> 56.6	33.2	53	> 65.2	85.8	> 100	> 69.8	33.6	39.3
COc1ccc(C(=C(I)c2ccccc2)c2ccc(OC)cc2)cc1	> 100	> 100	> 100	> 100	> 100	> 100	> 100	> 100	> 100	> 100
O=c1c2ccccc2n2nnc3ccc(NCCCNCCNCCCNc4ccc5nnn6c7ccccc7c(=O)c4c56)c1c32	35.3	> 27.5	9.84	> 38.5	19.5	> 50	21	7.49	12.3	> 50
O=C(/C=C/c1ccc(-c2ccccc2)cc1)NCc1ccc(C(=O)NCCc2c[nH]c3ccccc23)cc1	53.6	38.6	> 100	> 100	> 100	> 100	72.1	23.8	36.7	> 100
C=CC(C)(C)N[C@@H](C(=O)N1CCC[C@H]1c1nc(-c2nc(C(=O)OCC=C(C)C)c(C)o2)c(C)o1)C(C)C	55	42.8	35.6	38.6	38.3	38.6	71.4	39.2	51.7	35
C=CCN(c1cc(OCc2ccccc2)c(NC(C)=O)cc1[N+](=O)[O-])S(C)(=O)=O	36.1	60.4	> 100	> 100	> 100	> 100	> 100	> 100	53	41.2
O=C(NCCCCNCCCNC(=O)c1ccccc1)c1ccccc1	> 100	> 100	> 100	> 100	> 100	> 100	> 100	> 100	> 100	> 100
CCCC(CC)c1c(O)c(O)c(C(CC)CCC)c(C(CC)CCC)c1C(CC)CCC (stereo not given)	> 10	> 10	> 10	> 10	> 10	> 10	> 10	> 10	> 10	> 10
COCN1CCN=c2c1c1c3c(c4ccccc4n23)CCC1	> 100	> 100	> 100	> 100	> 100	> 100	> 100	> 100	> 100	> 100
Cc1cc(N=Cc2c(CO)cnc(C)c2O)c(N=Cc2c(CO)cnc(C)c2O)cc1C.[Zn]	> 100	> 100	> 100	> 100	> 100	> 100	> 100	> 100	> 100	> 100

Structure (SMILES)	TGI [1] [µM]	TGI [2] [µM]	TGI [3] [µM]	TGI [4] [µM]	TGI [5] [µM]	TGI [6] [µM]	TGI [7] [µM]	TGI [8] [µM]	TGI [9] [µM]	TGI [10] [µM]
O=C(OCCN1CCCCC1)C(c1ccccc1)C1(O)CCSCC1 (stereo not given)	> 100	> 100	> 100	> 100	> 100	> 100	> 100	> 100	> 100	> 100
O=c1[nH]c2cc3cccnc3c(Cl)c2nc1C(F)(F)F	> 100	> 100	> 100	> 100	> 100	> 100	83	> 100	> 100	60.5
N#Cc1c(N2CCCC2)ncn(Cc2ccccc2)c1=S	> 100	> 100	> 100	> 100	> 100	> 100	> 100	> 100	> 100	99.3
COc1ccc(-c2nc(-c3cc4ccccc4oc3=O)cs2)cc1	> 100	> 100	> 100	> 100	> 100	> 100	> 100	> 100	96.4	> 100
C=C(CC(=O)Nc1ccc(C(=O)OC)o1)C(=O)OC	> 100	> 100	38	76.7	39.5	72.4	71.6	45.2	> 100	> 100
Cc1ccc(S(=O)(=O)NC(=O)NCCC(=O)O)cc1	> 100	> 100	> 100	> 100	> 100	> 100	> 100	> 100	> 100	> 100
NCCNCCCCCCNC(=O)c1cccc2cc3ccccc3nc12	9.58	10.6	4.52	6.33	17.2	4.64	4.7	7.8	4.68	9.28
CC(C)(C)n1c(=O)n(C(=O)C(Cl)(Cl)Cl)n(C(=O)C(Cl)(Cl)Cl)c1=O	> 100	> 100	> 100	> 100	> 100	> 100	> 100	> 100	> 100	> 100
COc1ccc2c(c1)nc1n2C(N)=Nc2ccccc2S1	> 100	> 100	> 100	> 100	> 100	> 74.4	> 100	> 100	> 100	63.5
COC(=O)C1(NC(=O)C(CC(=O)OCc2ccccc2)NC(=O)OC(C)(C)C)CC1 (stereo not given) (Boc-[ξD](OBn)-[Ac3c]-OMe)	> 100	> 100	> 100	> 100	> 100	91.7	> 100	> 100	> 100	> 100
COc1ccc(/C=C(\C(=C/c2ccc(OC)cc2)[N+](=O)[O-])[N+](=O)[O-])cc1	30.2	30.2	8.8	24.8	16.7	9.38	27.1	10.1	21.2	10
COc1c(OC)c(O)c2c(=O)c(OC)c(-c3ccc4c(c3)OCO4)oc2c1O	> 100	> 100	> 100	> 100	> 100	> 100	> 100	> 100	> 100	> 100
CN(C)CCOC(=O)c1ccc(N)cc1	> 100	> 100	68.1	> 100	> 100	> 100	> 100	> 100	> 100	49.5
Cc1cc(NS(=O)(=O)c2ccc(NC(=O)c3cccc4c(NNc5ccc(S(=O)(=O)N=C(N)N)cc5)c5ccccc5nc34)cc2)no1	> 100	> 100	96.6	> 100	> 100	> 100	> 100	> 100	> 100	92.7
N#CC(C#N)=Cc1c(O)ccc2ccccc12	30.5	29.5	29.2	30.9	28.5	31.1	43.6	27.3	50.2	23.4
CCOC(=O)C1=C(C)C(C(=O)OC)/C(=C/c2cccc3cccnc23)C1=O (stereo not given)	> 10	> 10	> 10	> 10	> 10	> 10	> 10	> 10	> 10	> 10
COC(=O)/C=C\C(C#N)(C#N)N=Cc1ccc(C)s1	32.8	31.8	2.01	2.65	3.53	31	13.1	5.91	28.5	3.24
Cc1cc(Nc2ccc(N=Nc3ccc(O)c4ncccc34)cc2)nc(C)n1	> 100	> 80.4	55	44.6	36.5	24.6	71.7	> 88.2	> 69.6	46.7
